# Test results reported in article PMC10011554, “BET inhibitor trotabresib in heavily pretreated patients with solid tumors and diffuse large B-cell lymphomas” (Nature Communications, 2023).
# Experiment: Adverse events, DLTs, MTD and RP2D in phase I study CC-90010-ST-001 (NCI CTCAE v4.03)
# Assay type: in vivo
# Procedure: The primary endpoints of the study were the safety and tolerability of trotabresib, as well as the MTD and/or RP2D of trotabresib. Safety was assessed using the National Cancer Institute Common Terminology Criteria for Adverse Events v4.03[53].
# The decision to evaluate additional subjects within a dose cohort, a higher dose cohort, intermediate dose cohorts, smaller dose increments, alternate dosing schedules, or declare an MTD will also be determined by the SRC, based on their review of clinical and laboratory safety […]
# 7.2.4. Definition of a Subject Evaluable for DLT
# After the first dose is administered in any cohort during dose escalation, subjects in each cohort […]
# more than one subject per day will be enrolled in a given dose escalation cohort.
# A subject evaluable for DLT is defined as one that: […]
# without experiencing a DLT,
# Subjects non-evaluable for DLT will be replaced. Additional subjects within any dose cohort may be enrolled at the discretion of the SRC. Intra-subject dose escalation will not be allowed during the DLT assessment period.
# 7.2.5. Definition of Maximum Tolerated Dose (MTD) […]
# of MTD is described in Section 7.2.2.
# A variable dose cohort (eg, less frequent dosing) may be evaluated to accurately determine the MTD at the discretion of the SRC.
# 7.2.6. Definition of Dose-Limiting Toxicity (DLT) […]
# used as a guide for the grading of severity of adverse events. A DLT is defined as any of the following toxicities occurring within the DLT assessment unless the event can clearly be […]
# Do se-limiting toxicities are described below:
# • Hyperglycemia meeting any of the following criteria:
# − Grade 3 or greater fasting hyperglycemia (> 250 mg/dL) lasting > 4 days despite optimal medical treatment
# (1 picture or pasted object on this page, not shown here)
# − Hyperglycemia associated with diabetic ketoacidosis or nonketotic hyperosmolar coma regardless of glucose level
# − Hyperglycemia that necessitates dose reduction despite dose interruption and resolution to ≤ grade 1 hyperglycemia within two weeks as described in […]
# • Any Grade 4 non-hematologic toxicity of any duration
# • Any non-hematologic toxicity Grade ≥ 3 EXCEPT for:
# − Grade 3 diarrhea, nausea, or vomiting of ≤ 3 days duration (with optimal medical […]
# − Grade 3 rash of the acneiform, pustular or maculopapular type which resolves to […]
# level with resumption of study drug at the same dose (with optimal medical […]
# − Grade 3 fatigue which resolves to Grade ≤ 2 within 7 days of study drug […]
# the same dose (with optimal medical management).
# • Hematological toxicities as follows:
# − Grade 4 neutropenia lasting > 7 days
# − Grade 4 thrombocytopenia lasting > 7 days, Grade ≥ 3 thrombocytopenia with clinically significant bleeding
# • Any AE, Grade ≥ 2 not specified or exempt above, unless clearly determined to be unrelated to the drug, necessitating dose-level reduction during Cycle 1.
# Isolated laboratory changes without associated clinical signs or symptoms (eg, hypomagnesemia, hypermagnesemia, hypoalbuminemia, hypophosphatemia, lymphocyte count increased or decreased) may not be included in this definition. These findings will be discussed and reviewed […]
# 7.2.7. Criteria for Dose Escalation in the Next Cohort of Subjects
# During Part A, the dose escalation criteria are described in Section 7.2.2.
# 7.2.8. Definition of Stopping Criteria
# During Part A, the dose escalation stopping rules are in Section 7.2.2.
# 7.2.9. Permitted Study Drug Adjustments
# Dose reductions are permitted in any cycle, including Cycle 1.
# • Dose reductions that occur in Cycle 1 during dose escalation will constitute DLT as […]
# [1] = part B (12 subjects), 02 Dec 2019 cutoff
compound,measurement,setting,value
Cn1cc(-c2cc(S(C)(=O)=O)ccc2OCC2CC2)c2ccccc2c1=O [trotabresib],TRAE: Hyperglycemia,"part A, grade 3",1.45%
same,TRAE: Hypertension,"part A, grade 3",0%
same,TRAE: Hyponatremia,"part A, grade 3",1.45%
same,TRAE: Hypophosphatemia,"part A, grade 3",1.45%
same,TRAE: Nausea,"part A, grade 3",0%
same,TRAE: Neutropenia,"part A, grade 3",1.45%
same,TRAE: Platelet count decreased,"part A, grade 3",1.45%
same,TRAE: Stomatitis,"part A, grade 3",0%
same,TRAE: Thrombocytopenia,"part A, grade 3",10.14%
same,TRAE: Vomiting,"part A, grade 3",0%
same,TRAE: ALT increased,"part A, grade 4",0%
same,TRAE: Anemia,"part A, grade 4",0%
same,TRAE: Any TRAE,"part A, grade 4",7.25%
same,TRAE: Asthenia,"part A, grade 4",0%
same,TRAE: Decreased appetite,"part A, grade 4",0%
same,TRAE: Dehydration,"part A, grade 4",0%
same,TRAE: Dermatitis acneiform,"part A, grade 4",0%
same,TRAE: Diarrhoea,"part A, grade 4",0%
same,TRAE: Dysgeusia,"part A, grade 4",0%
same,TRAE: Fatigue,"part A, grade 4",0%
same,TRAE: Hyperglycemia,"part A, grade 4",0%
same,TRAE: Hypertension,"part A, grade 4",0%
same,TRAE: Hyponatremia,"part A, grade 4",1.45%
same,TRAE: Hypophosphatemia,"part A, grade 4",0%
same,TRAE: Nausea,"part A, grade 4",0%
same,TRAE: Neutropenia,"part A, grade 4",0%
same,TRAE: Platelet count decreased,"part A, grade 4",1.45%
same,TRAE: Stomatitis,"part A, grade 4",0%
same,TRAE: Thrombocytopenia,"part A, grade 4",2.9%
same,TRAE: Vomiting,"part A, grade 4",0%
same,"Grade 3 hyperglycemia, treatment-related",[1],8.3%
same,"Grade 4 hyperglycemia, treatment-related",[1],8.3%
same,TEAE anemia,[1],66.7%
same,TEAE thrombocytopenia,[1],58.3%
same,hyperglycemia,[1],33.3%
same,subjects with at least one TEAE,[1],83.3%
same,TRAE: ALT increased,"part B DLBCL, any grade",8.7%
same,TRAE: Anemia,"part B DLBCL, any grade",43.48%
same,TRAE: Any TRAE,"part B DLBCL, any grade",100%
same,TRAE: Asthenia,"part B DLBCL, any grade",21.74%
same,TRAE: Decreased appetite,"part B DLBCL, any grade",21.74%
same,TRAE: Dehydration,"part B DLBCL, any grade",13.04%
same,TRAE: Dermatitis acneiform,"part B DLBCL, any grade",0%
same,TRAE: Diarrhoea,"part B DLBCL, any grade",52.17%
same,TRAE: Dysgeusia,"part B DLBCL, any grade",8.7%
same,TRAE: Fatigue,"part B DLBCL, any grade",0%
same,TRAE: Hyperglycemia,"part B DLBCL, any grade",39.13%
same,TRAE: Hypertension,"part B DLBCL, any grade",4.35%
same,TRAE: Hyponatremia,"part B DLBCL, any grade",8.7%
same,TRAE: Hypophosphatemia,"part B DLBCL, any grade",17.39%
same,TRAE: Nausea,"part B DLBCL, any grade",21.74%
same,TRAE: Neutropenia,"part B DLBCL, any grade",39.13%
same,TRAE: Platelet count decreased,"part B DLBCL, any grade",0%
same,TRAE: Stomatitis,"part B DLBCL, any grade",17.39%
same,TRAE: Thrombocytopenia,"part B DLBCL, any grade",91.3%
same,TRAE: Vomiting,"part B DLBCL, any grade",17.39%
same,TRAE: ALT increased,"part B DLBCL, grade 3",0%
same,TRAE: Anemia,"part B DLBCL, grade 3",26.09%
same,TRAE: Any TRAE,"part B DLBCL, grade 3",26.09%
same,TRAE: Asthenia,"part B DLBCL, grade 3",8.7%
same,TRAE: Decreased appetite,"part B DLBCL, grade 3",4.35%
same,TRAE: Dehydration,"part B DLBCL, grade 3",13.04%
same,TRAE: Dermatitis acneiform,"part B DLBCL, grade 3",0%
same,TRAE: Diarrhoea,"part B DLBCL, grade 3",0%
same,TRAE: Dysgeusia,"part B DLBCL, grade 3",0%
same,TRAE: Fatigue,"part B DLBCL, grade 3",0%
same,TRAE: Hyperglycemia,"part B DLBCL, grade 3",4.35%
same,TRAE: Hypertension,"part B DLBCL, grade 3",4.35%
same,TRAE: Hyponatremia,"part B DLBCL, grade 3",0%
same,TRAE: Hypophosphatemia,"part B DLBCL, grade 3",13.04%
same,TRAE: Nausea,"part B DLBCL, grade 3",4.35%
same,TRAE: Neutropenia,"part B DLBCL, grade 3",13.04%
same,TRAE: Platelet count decreased,"part B DLBCL, grade 3",0%
same,TRAE: Stomatitis,"part B DLBCL, grade 3",0%
same,TRAE: Thrombocytopenia,"part B DLBCL, grade 3",17.39%
same,TRAE: Vomiting,"part B DLBCL, grade 3",0%
same,TRAE: ALT increased,"part B DLBCL, grade 4",0%
same,TRAE: Anemia,"part B DLBCL, grade 4",0%
same,TRAE: Any TRAE,"part B DLBCL, grade 4",65.22%
same,TRAE: Asthenia,"part B DLBCL, grade 4",0%
same,TRAE: Decreased appetite,"part B DLBCL, grade 4",0%
same,TRAE: Dehydration,"part B DLBCL, grade 4",0%
same,TRAE: Dermatitis acneiform,"part B DLBCL, grade 4",0%
same,TRAE: Diarrhoea,"part B DLBCL, grade 4",0%
same,TRAE: Dysgeusia,"part B DLBCL, grade 4",0%
same,TRAE: Fatigue,"part B DLBCL, grade 4",0%
same,TRAE: Hyperglycemia,"part B DLBCL, grade 4",4.35%
